Target: hQC (Homo sapiens (Human), UniProt Q16769)
Assay: QC inhibitor assay (hQC inhibition, IC50 and Ki determination)
Format: biochemical
Conditions: for Ki: competitive inhibition fit
Experimental: All measurements were performed with a BioAssay Reader HTS-7000Plus for microplates (Perkin Elmer) at 30° C. QC activity was evaluated fluorometrically using H-Gln-βNA. The samples consisted of 0.2 mM fluorogenic substrate, 0.25 U pyroglutamyl aminopeptidase (Unizyme, Hørsholm, Denmark) in 0.2 M Tris/HCl, pH 8.0 containing 20 mM EDTA and an appropriately diluted aliquot of QC in a final volume of 250 μl. Excitation/emission wavelengths were 320/410 nm. The assay reactions were initiated by addition of glutaminyl cyclase. QC activity was determined from a standard curve of β-naphthylamine under assay conditions. One unit is defined as the amount of QC catalyzing the formation of 1 μmol pGlu-βNA from H-Gln-βNA per minute under the described conditions.
In a second fluorometric assay, QC was activity determined using H-Gln-AMC as substrate. Reactions were carried out at 30° C. utilizing the NOVOStar reader for microplates (BMG labtechnologies). The samples consisted of varying concentrations of the fluorogenic substrate, 0.1 U pyroglutamyl aminopeptidase (Qiagen) in 0.05 M Tris/HCl, pH 8.0 containing 5 mM EDTA and an appropriately diluted aliquot of QC in a final volume of 250 μl. Excitation/emission wavelengths were 380/460 nm. The assay reactions were initiated by addition of glutaminyl cyclase. QC activity was determined from a standard curve of 7-amino-4-methylcoumarin under assay conditions. The kinetic data were evaluated using GraFit software.
This novel assay was used to determine the kinetic parameters for most of the QC substrates. […] Samples consisted of the respective QC substrate, 0.3 mM NADH, 14 mM α-Ketoglutaric acid and 30 U/ml glutamate dehydrogenase in a final volume of 250 μl. Reactions were started by addition of QC and perused by monitoring of the decrease in absorbance at 340 nm for 8-15 min.
The initial velocities were evaluated and the enzymatic activity was determined from a standard curve of ammonia under assay conditions. All samples were measured at 30° C., using either the […]luor Plus or the Sunrise (both from TECAN) reader for microplates. Kinetic data was evaluated using GraFit software.
For inhibitor testing, the sample composition was the same as described above, except of the putative inhibitory compound added. For a rapid test of QC-inhibition, samples contained 4 mM of the respective inhibitor and a substrate concentration at 1 KM. For detailed investigations of the inhibition and determination of Ki-values, influence of the inhibitor on the auxiliary enzymes was investigated first. […] The inhibitory constant was evaluated by fitting the set of progress curves to the general equation for competitive inhibition using GraFit software.

Chain of hQC (Q16769 29-361): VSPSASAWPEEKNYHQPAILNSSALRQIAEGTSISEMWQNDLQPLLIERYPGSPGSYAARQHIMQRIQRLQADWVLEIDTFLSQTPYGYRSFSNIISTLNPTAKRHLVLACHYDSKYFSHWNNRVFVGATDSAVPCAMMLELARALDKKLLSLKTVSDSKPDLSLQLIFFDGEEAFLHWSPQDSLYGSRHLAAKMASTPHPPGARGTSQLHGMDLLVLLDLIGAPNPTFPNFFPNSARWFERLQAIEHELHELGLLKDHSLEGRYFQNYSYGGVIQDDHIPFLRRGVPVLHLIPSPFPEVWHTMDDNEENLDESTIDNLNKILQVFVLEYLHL

## COc1ccc(Cn2cnnc2-c2ccc3[nH]cnc3c2)cc1 [Example 8, 5-(4-(4-Methoxybenzyl)-4H-1,2,4-triazol-3-yl)-1H-benzo[d]imidazole]
  IC50: 640 nM
  Ki: 110 nM

## Clc1ccccc1Cn1cnnc1-c1ccc2[nH]cnc2c1 [Example 9, 5-(4-(2-Chlorobenzyl)-4H-1,2,4-triazol-3-yl)-1H-benzo[d]imidazole]
  IC50: 760 nM
  Ki: 200 nM

## c1ccc(Oc2ccc(Cn3cnnc3-c3ccc4[nH]cnc4c3)cc2)cc1 [Example 10, 5-(4-(4-phenoxybenzyl)-4H-1,2,4-triazol-3-yl)-1H-benzo[d]imidazole]
  IC50: 480 nM
  Ki: 80 nM

## Clc1cccc(Cn2cnnc2-c2ccc3[nH]cnc3c2)c1Cl [Example 22, 5-(4-(2,3-Dichlorobenzyl)-4H-1,2,4-triazol-3-yl)-1H-benzo[d]imidazole]
  IC50: 520 nM
  Ki: 120 nM

## COc1ccc(Cn2cnnc2-c2ccc3[nH]cnc3c2)cc1Cl [Example 24, 5-(4-(3-Chloro-4-methoxybenzyl)-4H-1,2,4-triazol-3-yl)-1H-benzo[d]imidazole]
  IC50: 850 nM
  Ki: 230 nM

## COc1ccc(CCc2nnc(-c3ccc4[nH]cnc4c3)o2)cc1Cl [Example 39, 5-(5-(3-Chloro-4-methoxyphenethyl)-1,3,4-oxadiazol-2-yl)-1H-benzo[d]imidazole]
  IC50: 800 nM
  Ki: 130 nM

## CSc1ccc(CCc2nnc(-c3ccc4[nH]cnc4c3)s2)cc1 [Example 50, 5-(5-(4-(Methylthio)phenethyl)-1,3,4-thiadiazol-2-yl)-1H-benzo[d]imidazole]
  IC50: 760 nM
  Ki: 80 nM

## COc1ccc(CCc2nnc(-c3ccc4[nH]cnc4c3)s2)cc1Cl [Example 52, 5-(5-(3-Chloro-4-methoxyphenethyl)-1,3,4-thiadiazol-2-yl)-1H-benzo[d]imidazole]
  IC50: 680 nM
  Ki: 50 nM

## COc1cc(CCc2nnc(-c3ccc4[nH]cnc4c3)s2)cc(OC)c1OC [Example 55, 5-(5-(3,4,5-Trimethoxyphenethyl)-1,3,4-thiadiazol-2-yl)-1H-benzo[d]imidazole]
  IC50: 490 nM
  Ki: 80 nM

## Fc1ccc(CCc2nnc(-c3ccc4[nH]cnc4c3)s2)cc1F [Example 58, 5-(5-(3,4-Difluorophenethyl)-1,3,4-thiadiazol-2-yl)-1H-benzo[d]imidazole]
  IC50: 720 nM
  Ki: 140 nM

## Fc1cccc(CCc2nnc(-c3ccc4[nH]cnc4c3)s2)c1 [Example 59, 5-(5-(3-fluorophenethyl)-1,3,4-thiadiazol-2-yl)-1H-benzo[d]imidazole]
  IC50: 560 nM
  Ki: 120 nM

## COc1cccc(CCc2nnc(-c3ccc4[nH]cnc4c3)s2)c1 [Example 60, 5-(5-(3-Methoxyphenethyl)-1,3,4-thiadiazol-2-yl)-1H-benzo[d]imidazole]
  IC50: 450 nM
  Ki: 40 nM

## COc1ccccc1CCc1nnc(-c2ccc3[nH]cnc3c2)s1 [Example 61, 5-(5-(2-Methoxyphenethyl)-1,3,4-thiadiazol-2-yl)-1H-benzo[d]imidazole]
  IC50: 760 nM
  Ki: 170 nM

## COc1ccc(OC)c(CCc2nnc(-c3ccc4[nH]cnc4c3)s2)c1 [Example 62, 5-(5-(2,5-Dimethoxyphenethyl)-1,3,4-thiadiazol-2-yl)-1H-benzo[d]imidazole]
  IC50: 480 nM
  Ki: 80 nM

## COc1cccc(CCc2nnc(-c3ccc4[nH]cnc4c3)s2)c1Cl [Example 63, 5-(5-(2-Chloro-3-methoxyphenethyl)-1,3,4-thiadiazol-2-yl)-1H-benzo[d]imidazole]
  IC50: 220 nM
  Ki: 100 nM

## c1ccc(SCc2nnc(-c3ccc4[nH]cnc4c3)s2)cc1 [Example 65, 5-(5-((Phenylthio)methyl)-1,3,4-thiadiazol-2-yl)-1H-benzo[d]imidazole]
  IC50: 530 nM
  Ki: 120 nM

## c1ccc(SCn2cc(-c3ccc4[nH]cnc4c3)nn2)cc1 [Example 84, 5-(1-((Phenylthio)methyl)-1H-1,2,3-triazol-4-yl)-1H-benzo[d]imidazole]
  IC50: 570 nM
  Ki: 120 nM

— patent US9181233B2, “Inhibitors of glutaminyl cyclase” (PROBIODRUG AG, priority 2010, dated 2015)
